Columns and labels:
[1] = system: P300 and CBP; assay: Immunoblot of P300 and CBP protein levels in LNCaP, Calu-1, NCI-H1703 or MM.1R cells; assay type: cell-based; conditions: Calu-1, NCI-H1703 or MM.1R cell lines, 8 hours
From the text: Additional exemplary heterobifunctional compounds were designed to modulate the protein levels of either P300/CBP, or BRD4, and characterized in multiple cell lines. […] Taken together, DDB1 ligands conjugating with different target ligands may modulate the cellular target protein levels of cyclin D, CDK4/6, P300/CBP and BRD4.

[2] = system: P300/CBP; assay: P300/CBP cellular protein degradation; assay type: cell-based
Method in brief: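 Treated cells lysed in RIPA buffer with protease and phosphatase inhibitors, protein normalized by BCA assay. P300/CBP levels assessed by SDS-PAGE Western blot with ECL detection and band densitometry.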

[3] = system: P300 and CBP; assay: Immunoblotting of P300 and CBP protein levels in multiple cell lines; assay type: cell-based; conditions: LNCaP, Calu-1, NCI-H1703, or MM.1R cells, 8 hours
Method: LNCaP, Calu-1, NCI-H1703, or MM.1R cells were treated with CPD-191 at indicated concentrations for 8 hours.
(§1) Cultured cells were washed with cold PBS once and lysed in cold RIPA buffer supplemented with protease inhibitors and phosphatase inhibitors (Beyotime Biotechnology). The solutions were then incubated at 4° C. for 30 min with gentle agitation to fully lysed cells. Cell lysates were centrifuged at 13,000 rpm for 10 min at 4° C. and pellets were discarded. Total protein concentrations in the lysates were determined following BCA assays (Beyotime Biotechnology). Cell lysates were mixed with Laemmli loading buffer and heated at 99° C. for 5 min. Proteins were resolved on SDS-PAGE and visualized using Western ECL Substrate kits on a ChemiDoc MP Imaging system (Bio-Rad). Protein bands were quantitated using the Image Lab software provided by Bio-Rad.

[4] = system: cyclin D1, cyclin D2, cyclin D3; assay: Immunoblot of cyclin D protein levels in Calu-1 (and BT-549) cells; assay type: cell-based; conditions: 16 hours; for decrease of degradation potency versus corresponding active compound: Calu-1 cells, CPD-042 vs CPD-002, CPD-049 vs CPD-031
Method: Specific exemplary heterobifunctional compounds were characterized in Calu-1, BT-549 and other cells. Cells that express cyclin D1-3 and CDK4/6 proteins were treated with heterobifunctional compounds disclosed herein at indicated concentrations for 16 hours. Cells were collected, lysed and subject to immunoblotting using an antibody specific to cyclin D1, cyclin D2, cyclin D3, CDK4, CDK6 or phosphorylated R^b proteins. Tubulin or GAPDH was used as the loading control. DMSO treatment was used as the negative control.
In a time-course study, Calu-1 cells were treated with 500 nM CPD-002, or 100 nM CPD-031 for indicated period of time prior to immunoblotting (FIG. 4A-4B).
The heterobifunctional compound-mediated degradation was dependent on the ubiquitin-proteasome system and cullin E3 ligase. […] In addition, DDB1 E3 ligase was critical for the degrader-induced cyclin D downregulation. Depletion of DDB1 using CRISPR-Cas9 technology attenuated the cyclin D degradation induced by CPD-031 (FIG. 5C).
(§2) To verify that heterobifunctional compound-mediated degradation is dependent on the binding to CDK4-cyclin D complex, we designed three negative control compounds, CPD-042, CPD-049 and CPD-380, which are derived from CPD-002 CPD-031 and CPD-343, respectively. These three control compounds bear the same DDB1 ligand and linker as their corresponding active heterobifunctional compounds but with modified warheads to impair the binding of the control compounds to CDK4. […] However, the binding to CDK4 is not sufficient for cyclin D degradation. Two cereblon (CRBN)-recruiting reference heterobifunctional compounds, CP-10 (Su, J Med Chem, 2019; CAS No.: 2366268-80-4) and BSJ-03-123 (Brand, Cell Chem Biol, 2019; CAS No.: 2361493-16-3) were analyzed in Calu-1 cells.

[5] = system: Calu-1 cells; assay: Anti-viability / anti-proliferation in Calu-1 cells; assay type: cell-based; conditions: CPD-042 vs CPD-002, CPD-049 vs CPD-031
Method: FIG. 6 show immunoblots of cyclin D1, cyclin D2, cyclin D3, and CDK4 proteins expressed by Calu-1 cells after treatment with a dose range of control compounds CPD-042 (A), or CPD-049 (B) for 16 hours, and anti-viability curves of Calu-1 cells in the presence of CPD-002 and CPD-042 (C), or CPD-031 and CPD-049 (D).
FIG. 11A-11B show immunoblots of cyclin D1, CDK4, and CDK6 proteins expressed by Calu-1 cells after treatment with a dose range of heterobifunctional reference compound CP-10, or BSJ-03-123 for 8 hours (FIG. 11A), and anti-viability curves of Calu-1 cells in the presence of CP-10, or BSJ-03-123 for 3 days (FIG. 11B).
as §2

[6] = target: T1, DDB1 (Homo sapiens, UniProt Q16531, D705G/DEL396-460/DEL463-701/I704S/T703N); assay: SPR binding assay to immobilized DDB1ΔBPB; conditions: binding affinities to DDB1
T1 construct: His6 (N, cleaved yes); TEV protease cleavage site (N, cleaved yes); made in house; host or cells: SF9 insect cells, Bac-to-Bac baculovirus, pFastBacHTB vector
Method in brief: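 Untagged Sf9-expressed DDB1ΔBPB (BPB domain aa 396-705 replaced by GNGNSG linker) amine-coupled to CM5 chip at 10,000-12,000 RU; 25° C, HBS-EP pH 7.4 with 5% DMSO. Compounds injected multi-cycle at 100 μM-3.125 μM (6-point two-fold); double-referenced, solvent-corrected data fit to steady-state model for Kd.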

[7] = system: cyclin D1; assay: Cyclin D1 percentage degradation in Calu-1 cells (immunoblotting); assay type: cell-based; conditions: 200 nM, 16 hours
Method in brief: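 Cyclin D1 degradation was assessed by western blot. Clarified lysates, obtained by RIPA lysis with inhibitors and centrifugation at 13,000 rpm, were normalized by BCA protein assay and separated by SDS-PAGE. Bands were detected with Western ECL Substrate on a Bio-Rad ChemiDoc MP Imaging system and quantified in Image Lab software to derive percentage degradation.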

[8] = target: T2, CDK4 (Homo sapiens, UniProt P11802); assay: CDK4 percentage degradation in Calu-1 cells (immunoblotting); assay type: cell-based; conditions: Calu-1 cells, 200 nM, 16 hours; read-out: CDK4 Degradation (200 nM)
T2 construct: endogenous in cells; host or cells: Calu-1
Method in brief: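 CDK4 degradation was measured by immunoblotting. Cells were washed in cold PBS and lysed in RIPA buffer with inhibitors for 30 min at 4° C., then spun at 13,000 rpm to clear. After BCA protein determination, lysates were heated at 99° C. for 5 min in Laemmli buffer, resolved on SDS-PAGE, imaged on a ChemiDoc MP with ECL substrate, and band intensities quantified.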

[9] = system: Calu-1; assay: Cell viability assay, Calu-1; assay type: cell-based; conditions: Calu-1 cells, 96-well plates, serial dilution, 3 days
Method: Cells were treated with CDK4/6 inhibitors palbociclib, ribociclib, or abemaciclib, or heterobifunctional compounds CPD-002 or CPD-031 following a 9-point serial dilution for 3 days.
Cells were seeded at a density of 2,000-5,000 cells per well in 96-well assay plates and treated with test compounds following a 10-point serial dilution for 3-6 days. Cell viability was determined using the CellTiter-Lumi assay kit according to the manufacturer's instructions. The dose-response curves were determined and IC50 values were calculated using the GraphPad Prism software following a nonlinear regression (least squares fit) method. Data presented was mean±standard deviation (SD) unless otherwise indicated.

[10] = system: cyclin D1, cyclin D2, cyclin D3, CDK4 and CDK6; assay: Immunoblotting of cyclin D and CDK4/6 protein levels in Calu-1 cells; assay type: cell-based; conditions: for degradation potencies compared with corresponding active heterobifunctional compounds: dose range, negative control compounds
Method: (§3) Calu-1 (FIG. 2A) or BT-549 (FIG. 2B) cells were treated with CPD-002, CPD-004, or palbociclib at indicated concentrations for 16 hours.
Calu-1 cells were treated with CPD-031 at indicated concentrations for 16 hours.
Calu-1 cells were treated with CPD-002 or CPD-031 at 500 nM or 100 nM, respectively for indicated period of time.
Calu-1 cells were pre-treated with DMSO, 20 μM MG-132 (MG), 5 μM MLN4924 (MLN) or 1 μM TAK-243 (TAK) for 2 hours, and subsequently incubated with 500 nM CPD-002, 500 nM CPD-004, or 100 nM CPD-031 for another 4 h or 2 h prior to immunoblotting (FIG. 5A-5B).
Calu-1 cells were treated with a dose range of negative control compounds CPD-042 or CPD-049 for 16 hours (FIG. 6A-6B).
Calu-1 cells were treated with reference compounds CP-10 or BSJ-03-123 at indicated concentrations for 8 hours.
as §1

[11] = target: T1, DDB1; assay: Surface plasmon resonance (SPR) binding of heterobifunctional compounds to DDB1; conditions: purified DDB1ΔBPB immobilized on CM5 chip, multi-cycle kinetic format, steady state model, read-out: binding affinities (Kd) to DDB1
Method: To determine whether the addition of linkers and target binders to the DDB1 ligands affected the binding to DDB1 E3 ligase, the binding affinities of heterobifunctional compounds to DDB1 was evaluated using a surface plasmon resonance (SPR) assay. Purified DDB1ΔBPB proteins were immobilized on a CM5 sensor chip and a dose range of compound solutions were injected in multi-cycle kinetic format. Data was fit to steady state model and gave equivalent dissociation constants (Kd).

[12] = system: cyclin D1, cyclin D2, cyclin D3, CDK4 and CDK6; assay: Immunoblotting of cyclin D and CDK4/6 protein levels in BT-549 cells; assay type: cell-based; conditions: indicated concentrations, 16 hours
Method: as §3, §1

[13] = system: Rb phosphorylation, cleaved caspase-3; assay: Immunoblotting of downstream Rb phosphorylation and cleaved caspase-3 in Calu-1 or BT-549 cells; assay type: cell-based; conditions: 16 hours
Method: as §3, §1

T2 sequence (P11802 2-303 limits assumed): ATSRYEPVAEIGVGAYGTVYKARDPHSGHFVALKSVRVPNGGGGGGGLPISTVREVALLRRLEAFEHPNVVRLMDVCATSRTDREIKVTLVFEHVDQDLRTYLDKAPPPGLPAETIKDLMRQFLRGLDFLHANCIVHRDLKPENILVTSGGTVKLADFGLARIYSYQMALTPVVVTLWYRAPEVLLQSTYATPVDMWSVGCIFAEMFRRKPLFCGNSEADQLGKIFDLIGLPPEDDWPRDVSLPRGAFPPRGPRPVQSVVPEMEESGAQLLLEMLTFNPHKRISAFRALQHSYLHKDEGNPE
T2 sequence (P24385 whole entry partner): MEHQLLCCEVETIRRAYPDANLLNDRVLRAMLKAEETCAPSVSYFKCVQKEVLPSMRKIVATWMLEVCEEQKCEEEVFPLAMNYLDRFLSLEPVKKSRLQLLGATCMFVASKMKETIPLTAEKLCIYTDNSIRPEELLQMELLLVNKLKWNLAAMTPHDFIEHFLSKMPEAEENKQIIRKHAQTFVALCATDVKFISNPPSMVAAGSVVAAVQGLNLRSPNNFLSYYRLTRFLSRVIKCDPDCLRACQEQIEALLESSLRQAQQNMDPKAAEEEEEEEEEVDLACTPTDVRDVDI
T2 sequence (Q16531 2-1140 limits assumed, further chain): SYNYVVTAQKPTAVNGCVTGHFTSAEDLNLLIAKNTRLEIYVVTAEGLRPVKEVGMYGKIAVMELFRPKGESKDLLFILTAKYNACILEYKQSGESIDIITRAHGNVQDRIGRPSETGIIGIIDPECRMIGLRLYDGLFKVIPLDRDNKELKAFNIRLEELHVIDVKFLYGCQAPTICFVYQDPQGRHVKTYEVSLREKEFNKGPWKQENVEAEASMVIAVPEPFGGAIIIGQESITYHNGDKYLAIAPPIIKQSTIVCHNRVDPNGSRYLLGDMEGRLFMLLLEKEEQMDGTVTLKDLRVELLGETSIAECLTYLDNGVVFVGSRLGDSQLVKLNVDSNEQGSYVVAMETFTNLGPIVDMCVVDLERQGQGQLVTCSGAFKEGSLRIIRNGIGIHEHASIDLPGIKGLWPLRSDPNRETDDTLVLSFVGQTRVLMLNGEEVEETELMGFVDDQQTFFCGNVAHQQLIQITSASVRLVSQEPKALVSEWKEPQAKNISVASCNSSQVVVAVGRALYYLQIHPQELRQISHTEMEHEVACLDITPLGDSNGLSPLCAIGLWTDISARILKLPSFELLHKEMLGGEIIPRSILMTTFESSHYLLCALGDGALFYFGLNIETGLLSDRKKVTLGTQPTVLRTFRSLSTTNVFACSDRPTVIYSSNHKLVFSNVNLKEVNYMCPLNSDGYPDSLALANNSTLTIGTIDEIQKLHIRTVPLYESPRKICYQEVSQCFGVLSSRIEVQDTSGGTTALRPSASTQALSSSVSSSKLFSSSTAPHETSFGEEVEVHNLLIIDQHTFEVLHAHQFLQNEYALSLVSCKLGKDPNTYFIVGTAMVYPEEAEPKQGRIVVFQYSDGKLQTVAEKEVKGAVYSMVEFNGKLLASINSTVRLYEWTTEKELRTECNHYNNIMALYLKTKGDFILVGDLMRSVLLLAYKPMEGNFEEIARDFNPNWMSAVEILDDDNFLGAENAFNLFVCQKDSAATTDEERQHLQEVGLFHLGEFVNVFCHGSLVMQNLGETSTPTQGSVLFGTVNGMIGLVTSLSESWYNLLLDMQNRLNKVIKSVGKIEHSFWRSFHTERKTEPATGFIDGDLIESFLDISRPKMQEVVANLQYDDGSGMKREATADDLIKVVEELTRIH
T1 sequence (Q16531 other isoform, or with tags, fused parts or gaps DEL396-460/DEL463-701/T703N/I704S/D705G): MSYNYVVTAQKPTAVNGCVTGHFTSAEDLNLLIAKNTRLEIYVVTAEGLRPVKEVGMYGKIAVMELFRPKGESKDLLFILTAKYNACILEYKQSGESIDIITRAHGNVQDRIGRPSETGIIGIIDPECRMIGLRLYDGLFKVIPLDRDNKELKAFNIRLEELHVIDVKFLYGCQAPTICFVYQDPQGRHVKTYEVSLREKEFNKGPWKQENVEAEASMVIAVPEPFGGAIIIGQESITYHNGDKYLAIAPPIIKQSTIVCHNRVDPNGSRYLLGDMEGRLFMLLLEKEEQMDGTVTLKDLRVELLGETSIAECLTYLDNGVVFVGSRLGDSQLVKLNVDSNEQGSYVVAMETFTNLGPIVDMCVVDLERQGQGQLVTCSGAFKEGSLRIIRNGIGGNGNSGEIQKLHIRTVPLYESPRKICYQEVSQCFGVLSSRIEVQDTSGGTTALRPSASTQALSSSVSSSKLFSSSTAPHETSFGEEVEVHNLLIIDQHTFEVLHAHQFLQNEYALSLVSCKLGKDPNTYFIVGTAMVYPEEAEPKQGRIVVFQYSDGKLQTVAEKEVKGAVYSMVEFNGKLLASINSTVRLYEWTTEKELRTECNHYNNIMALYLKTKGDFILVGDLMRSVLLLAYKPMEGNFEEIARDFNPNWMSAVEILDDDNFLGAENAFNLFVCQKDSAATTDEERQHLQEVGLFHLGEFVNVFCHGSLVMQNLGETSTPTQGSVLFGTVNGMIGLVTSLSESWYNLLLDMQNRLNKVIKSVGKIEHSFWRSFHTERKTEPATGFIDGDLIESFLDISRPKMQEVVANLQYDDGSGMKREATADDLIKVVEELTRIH

Row | SMILES | DC50 [1] | reduction of P300 and CBP protein levels ([1]; dose range) | P300/CBP Degradation (100 nM) [2] | P300 and CBP protein levels [3] | decrease of degradation potency versus corresponding active compound [4] | decrease of cellular anti-proliferation activity versus corresponding active compound [5] | Kd [6] | CyclinD1 Degradation (200 nM) [7] | inhibition at 0.2 µM [8] | cell viability (cellular anti-proliferation activity) [9] | degradation potencies compared with corresponding active heterobifunctional compounds ([10]; 16 hours) | Kd [11] | reduction of cyclin D1, cyclin D2, and cyclin D3 protein levels ([4]; immunoblot, Calu-1 / BT-549 cells, dose range) | cyclin D degradation after pretreatment with MG-132, MLN4924 or TAK-243 ([10]; 2 hours pre-treatment, then 500 nM CPD-002, 500 nM CPD-004 or 100 nM CPD-031 for 4 h or 2 h) | cyclin D1, cyclin D2, cyclin D3, CDK4 and CDK6 protein levels ([10]; indicated concentrations, 16 hours) | cyclin D1, cyclin D2, cyclin D3, CDK4 and CDK6 protein levels [12] | downstream Rb phosphorylation and cleaved caspase-3 [13]
1 | CC(=O)N1CCc2c(c(N3CCCc4cc(-c5cnn(C)c5)c(C(F)F)cc43)nn2C2CCN(CC(=O)NCCCCNc3ccc(C(=O)Nc4ncc(C)s4)c(C)c3)CC2)C1 [CPD-191] | < 0.01 µM | significantly reduced | A (degradation activity >= 80%) | reduced P300 and CBP protein levels in a concentration-dependent manner |  |  |  |  |  |  |  |  |  |  |  |  | 
2 | CC(=O)c1c(C)c2cnc(N(C)c3ccc(N4CCN(CC(=O)NCCOCCOCCOCCOCCOCCNc5ccc(C(=O)Nc6nc(C)c(C)s6)c(C)c5)CC4)cn3)nc2n(C2CCCC2)c1=O [CPD-049, 4-((1-(4-(6-((6-Acetyl-8-cyclopentyl-5-methyl-7-oxo-7,8-dihydropyrido[2,3-d]pyrimidin-2-yl)(methyl)amino)pyridin-3-yl)piperazin-1-yl)-2-oxo-6,9,12,15,18-pentaoxa-3-azaicosan-20-yl)amino)-N-(4,5-dimethylthiazol-2-yl)-2-methylbenzamide] |  |  |  |  | > 100 fold | > 100 fold | 20 to 50 µM | D (protein percentage degradation <30%) | < 30% | much weaker cellular anti-proliferation activities | much weaker degradation potencies |  |  |  |  |  | 
3 | CC(=O)c1c(C)c2cnc(N(C)c3ccc(N4CCN(CC(=O)NCCOCCOCCOCCOCCOCCNc5ccc(C(=O)Nc6ncc(C)s6)c(C)c5)CC4)cn3)nc2n(C2CCCC2)c1=O [CPD-042, 4-((1-(4-(6-((6-Acetyl-8-cyclopentyl-5-methyl-7-oxo-7,8-dihydropyrido[2,3-d]pyrimidin-2-yl)(methyl)amino)pyridin-3-yl)piperazin-1-yl)-2-oxo-6,9,12,15,18-pentaoxa-3-azaicosan-20-yl)amino)-2-methyl-N-(5-methylthiazol-2-yl)benzamide] |  |  |  |  | > 10 fold | > 20 fold | < 20 µM | D (protein percentage degradation <30%) | < 30% | much weaker cellular anti-proliferation activities | much weaker degradation potencies |  |  |  |  |  | 
4 | CC(=O)c1c(C)c2cnc(Nc3ccc(N4CCN(CC(=O)NCCOCCOCCOCCOCCOCCNc5ccc(C(=O)Nc6nccs6)c(C)c5)CC4)cn3)nc2n(C2CCCC2)c1=O [CPD-004, 4-((1-(4-(6-((6-Acetyl-8-cyclopentyl-5-methyl-7-oxo-7,8-dihydropyrido[2,3-d]pyrimidin-2-yl)amino)pyridin-3-yl)piperazin-1-yl)-2-oxo-6,9,12,15,18-pentaoxa-3-azaicosan-20-yl)amino)-2-methyl-N-(thiazol-2-yl)benzamide] |  |  |  |  |  |  | < 20 µM | A (protein percentage degradation >=80%) | 30 to 50% |  |  | 9.4 µM | particularly effective | diminished the cyclin D degradation effect | reduced cyclin D1, cyclin D2, cyclin D3, CDK4 and CDK6 protein levels in a concentration-dependent manner | reduced cyclin D1, cyclin D2, cyclin D3, CDK4 and CDK6 protein levels in a concentration-dependent manner | inhibited downstream Rb phosphorylation and induced cleaved caspase-3 in a concentration-dependent manner

— US20250235543A1, “MODIFIED PROTEINS AND PROTEIN DEGRADERS” (Cullgen (Shanghai), Inc., priority 2021, published 2025)
